Results from patent publication US12391648B2, “Pyridyloxy thioester derivative and preparation method therefor, herbicidal composition, and application” (Qingdao Kingagroot Chemical Compound Co., Ltd., priority 2018, dated 2025).

Legend:
Test in all cases: Post-emergence test experiment (Table 3, 1000 g/ha)
Format in all cases: in vivo
Conditions in all cases: post-emergence spray, after 3 weeks, fresh weight inhibition
Monochoria vaginalis = system: Monochoria vaginalis
How it was run: (§1)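 Activity graded levels 0-5 by fresh-weight inhibition (level 5 above 85%, level 0 below 5%), assessed 3 weeks after treatment. Plants grown in greenhouse pots were sprayed post-emergence at 2-3 leaves using acetone/tween-80 solutions with methyl oleate synergist (1.5 L/ha).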

Setaria viridis = system: Setaria viridis
How it was run: as §1

Galium spurium = system: Galium spurium
How it was run: as §1

Digitaria sanguinalis = system: Digitaria sanguinalis
How it was run: as §1

Abutilon theophrasti = system: Abutilon theophrasti
How it was run: as §1

Leptochloa chinensis = system: Leptochloa chinensis
How it was run: as §1

For `CCC(C)SC(=O)C(C)Oc1nc(F)c(Cl)c(N)c1Cl` (stereo not drawn) [Compound 69], the “Activity level (growth inhibition rate) Monochoria Vaginalis” value (Monochoria vaginalis) was 5 (Level 5: the growth inhibition rate is greater than 85%), the “Activity level (growth inhibition rate) Setaria viridis” value (Setaria viridis) was 5 (Level 5: the growth inhibition rate is greater than 85%) and the “Activity level (growth inhibition rate) Galium spurium” value (Galium spurium) was 5 (Level 5: the growth inhibition rate is greater than 85%). The “Activity level (growth inhibition rate) Digitaria sanguinalis” value (Digitaria sanguinalis) was 5 (Level 5: the growth inhibition rate is greater than 85%), the “Activity level (growth inhibition rate) Abutilon theophrasti” value (Abutilon theophrasti) was 5 (Level 5: the growth inhibition rate is greater than 85%) and the “Activity level (growth inhibition rate) Leptochloa chinensis” value (Leptochloa chinensis) was 5 (Level 5: the growth inhibition rate is greater than 85%).

For `CC(Oc1nc(F)c(Cl)c(N)c1Cl)C(=O)Sc1ccccc1` (stereo not drawn) [Compound 107], the “Activity level (growth inhibition rate) Monochoria Vaginalis” value (Monochoria vaginalis) was 5 (Level 5: the growth inhibition rate is greater than 85%), the “Activity level (growth inhibition rate) Setaria viridis” value (Setaria viridis) was 5 (Level 5: the growth inhibition rate is greater than 85%) and the “Activity level (growth inhibition rate) Galium spurium” value (Galium spurium) was 5 (Level 5: the growth inhibition rate is greater than 85%). The “Activity level (growth inhibition rate) Digitaria sanguinalis” value (Digitaria sanguinalis) was 5 (Level 5: the growth inhibition rate is greater than 85%), the “Activity level (growth inhibition rate) Abutilon theophrasti” value (Abutilon theophrasti) was 5 (Level 5: the growth inhibition rate is greater than 85%) and the “Activity level (growth inhibition rate) Leptochloa chinensis” value (Leptochloa chinensis) was 5 (Level 5: the growth inhibition rate is greater than 85%).

For `CC(C)CCSC(=O)C(C)Oc1nc(F)c(Cl)c(N)c1Cl` (stereo not drawn) [Compound 146], the “Activity level (growth inhibition rate) Monochoria Vaginalis” value (Monochoria vaginalis) was 5 (Level 5: the growth inhibition rate is greater than 85%), the “Activity level (growth inhibition rate) Setaria viridis” value (Setaria viridis) was 5 (Level 5: the growth inhibition rate is greater than 85%) and the “Activity level (growth inhibition rate) Galium spurium” value (Galium spurium) was 5 (Level 5: the growth inhibition rate is greater than 85%). For the same molecule, the “Activity level (growth inhibition rate) Digitaria sanguinalis” value (Digitaria sanguinalis) was 5 (Level 5: the growth inhibition rate is greater than 85%), the “Activity level (growth inhibition rate) Abutilon theophrasti” value (Abutilon theophrasti) was 5 (Level 5: the growth inhibition rate is greater than 85%) and the “Activity level (growth inhibition rate) Leptochloa chinensis” value (Leptochloa chinensis) was 5 (Level 5: the growth inhibition rate is greater than 85%).

For `CSC(=O)C(C)Oc1nc(F)c(C(F)(F)F)c(N)c1Cl` (stereo not drawn) [Compound 15], the “Activity level (growth inhibition rate) Monochoria Vaginalis” value (Monochoria vaginalis) was 5 (Level 5: the growth inhibition rate is greater than 85%), the “Activity level (growth inhibition rate) Setaria viridis” value (Setaria viridis) was 5 (Level 5: the growth inhibition rate is greater than 85%) and the “Activity level (growth inhibition rate) Galium spurium” value (Galium spurium) was 5 (Level 5: the growth inhibition rate is greater than 85%). For the same molecule, the “Activity level (growth inhibition rate) Digitaria sanguinalis” value (Digitaria sanguinalis) was 5 (Level 5: the growth inhibition rate is greater than 85%), the “Activity level (growth inhibition rate) Abutilon theophrasti” value (Abutilon theophrasti) was 5 (Level 5: the growth inhibition rate is greater than 85%) and the “Activity level (growth inhibition rate) Leptochloa chinensis” value (Leptochloa chinensis) was 5 (Level 5: the growth inhibition rate is greater than 85%).

With `CCC(CC)SC(=O)C(C)Oc1nc(F)c(Cl)c(N)c1Cl` (stereo not drawn) [Compound 150] the “Activity level (growth inhibition rate) Monochoria Vaginalis” value (Monochoria vaginalis) was 5 (Level 5: the growth inhibition rate is greater than 85%), the “Activity level (growth inhibition rate) Setaria viridis” value (Setaria viridis) was 5 (Level 5: the growth inhibition rate is greater than 85%) and the “Activity level (growth inhibition rate) Galium spurium” value (Galium spurium) was 5 (Level 5: the growth inhibition rate is greater than 85%). For the same molecule, the “Activity level (growth inhibition rate) Digitaria sanguinalis” value (Digitaria sanguinalis) was 5 (Level 5: the growth inhibition rate is greater than 85%), the “Activity level (growth inhibition rate) Abutilon theophrasti” value (Abutilon theophrasti) was 5 (Level 5: the growth inhibition rate is greater than 85%) and the “Activity level (growth inhibition rate) Leptochloa chinensis” value (Leptochloa chinensis) was 5 (Level 5: the growth inhibition rate is greater than 85%).

In the case of `CCCC(C)CSC(=O)C(C)Oc1nc(F)c(Cl)c(N)c1Cl` (stereo not drawn) [Compound 152], the “Activity level (growth inhibition rate) Monochoria Vaginalis” value (Monochoria vaginalis) is reported as 5 (Level 5: the growth inhibition rate is greater than 85%), the “Activity level (growth inhibition rate) Setaria viridis” value (Setaria viridis) is reported as 5 (Level 5: the growth inhibition rate is greater than 85%) and the “Activity level (growth inhibition rate) Galium spurium” value (Galium spurium) is reported as 5 (Level 5: the growth inhibition rate is greater than 85%). For the same molecule, the “Activity level (growth inhibition rate) Digitaria sanguinalis” value (Digitaria sanguinalis) was 5 (Level 5: the growth inhibition rate is greater than 85%), the “Activity level (growth inhibition rate) Abutilon theophrasti” value (Abutilon theophrasti) was 5 (Level 5: the growth inhibition rate is greater than 85%) and the “Activity level (growth inhibition rate) Leptochloa chinensis” value (Leptochloa chinensis) was 5 (Level 5: the growth inhibition rate is greater than 85%).

In the case of `CCCCCCCCCCCCSC(=O)C(C)Oc1nc(F)c(Cl)c(N)c1Cl` (stereo not drawn) [Compound 143], the “Activity level (growth inhibition rate) Monochoria Vaginalis” value (Monochoria vaginalis) is reported as 5 (Level 5: the growth inhibition rate is greater than 85%), the “Activity level (growth inhibition rate) Setaria viridis” value (Setaria viridis) is reported as 5 (Level 5: the growth inhibition rate is greater than 85%) and the “Activity level (growth inhibition rate) Galium spurium” value (Galium spurium) is reported as 5 (Level 5: the growth inhibition rate is greater than 85%). The “Activity level (growth inhibition rate) Digitaria sanguinalis” value (Digitaria sanguinalis) was 5 (Level 5: the growth inhibition rate is greater than 85%), the “Activity level (growth inhibition rate) Abutilon theophrasti” value (Abutilon theophrasti) was 5 (Level 5: the growth inhibition rate is greater than 85%) and the “Activity level (growth inhibition rate) Leptochloa chinensis” value (Leptochloa chinensis) was 5 (Level 5: the growth inhibition rate is greater than 85%).

With `CC(Oc1nc(F)c(Cl)c(N)c1Cl)C(=O)SC1CCCC1` (stereo not drawn) [Compound 125] the “Activity level (growth inhibition rate) Monochoria Vaginalis” value (Monochoria vaginalis) was 5 (Level 5: the growth inhibition rate is greater than 85%), the “Activity level (growth inhibition rate) Setaria viridis” value (Setaria viridis) was 5 (Level 5: the growth inhibition rate is greater than 85%) and the “Activity level (growth inhibition rate) Galium spurium” value (Galium spurium) was 5 (Level 5: the growth inhibition rate is greater than 85%). The “Activity level (growth inhibition rate) Digitaria sanguinalis” value (Digitaria sanguinalis) was 5 (Level 5: the growth inhibition rate is greater than 85%), the “Activity level (growth inhibition rate) Abutilon theophrasti” value (Abutilon theophrasti) was 5 (Level 5: the growth inhibition rate is greater than 85%) and the “Activity level (growth inhibition rate) Leptochloa chinensis” value (Leptochloa chinensis) was 5 (Level 5: the growth inhibition rate is greater than 85%).

In the case of `CSC(=O)C(C)Oc1nc(C(F)(F)F)c(F)c(N)c1C(C)C` (stereo not drawn) [Compound 11], the “Activity level (growth inhibition rate) Monochoria Vaginalis” value (Monochoria vaginalis) is reported as 5 (Level 5: the growth inhibition rate is greater than 85%), the “Activity level (growth inhibition rate) Setaria viridis” value (Setaria viridis) is reported as 5 (Level 5: the growth inhibition rate is greater than 85%) and the “Activity level (growth inhibition rate) Galium spurium” value (Galium spurium) is reported as 5 (Level 5: the growth inhibition rate is greater than 85%). The “Activity level (growth inhibition rate) Digitaria sanguinalis” value (Digitaria sanguinalis) was 5 (Level 5: the growth inhibition rate is greater than 85%), the “Activity level (growth inhibition rate) Abutilon theophrasti” value (Abutilon theophrasti) was 5 (Level 5: the growth inhibition rate is greater than 85%) and the “Activity level (growth inhibition rate) Leptochloa chinensis” value (Leptochloa chinensis) was 5 (Level 5: the growth inhibition rate is greater than 85%).

`CSC(=O)C(C)Oc1nc(I)c(Cl)c(N)c1Cl` (stereo not drawn) [Compound 17] was tested, and the “Activity level (growth inhibition rate) Monochoria Vaginalis” value (Monochoria vaginalis) was 5 (Level 5: the growth inhibition rate is greater than 85%), the “Activity level (growth inhibition rate) Setaria viridis” value (Setaria viridis) was 5 (Level 5: the growth inhibition rate is greater than 85%) and the “Activity level (growth inhibition rate) Galium spurium” value (Galium spurium) was 5 (Level 5: the growth inhibition rate is greater than 85%). The “Activity level (growth inhibition rate) Digitaria sanguinalis” value (Digitaria sanguinalis) was 5 (Level 5: the growth inhibition rate is greater than 85%), the “Activity level (growth inhibition rate) Abutilon theophrasti” value (Abutilon theophrasti) was 5 (Level 5: the growth inhibition rate is greater than 85%) and the “Activity level (growth inhibition rate) Leptochloa chinensis” value (Leptochloa chinensis) was 5 (Level 5: the growth inhibition rate is greater than 85%).

In the case of `CC(Oc1nc(F)c(Cl)c(N)c1Cl)C(=O)SCC(Cl)=C(Cl)Cl` (stereo not drawn) [Compound 92], the “Activity level (growth inhibition rate) Monochoria Vaginalis” value (Monochoria vaginalis) is reported as 5 (Level 5: the growth inhibition rate is greater than 85%), the “Activity level (growth inhibition rate) Setaria viridis” value (Setaria viridis) is reported as 5 (Level 5: the growth inhibition rate is greater than 85%) and the “Activity level (growth inhibition rate) Galium spurium” value (Galium spurium) is reported as 5 (Level 5: the growth inhibition rate is greater than 85%). For the same molecule, the “Activity level (growth inhibition rate) Digitaria sanguinalis” value (Digitaria sanguinalis) was 5 (Level 5: the growth inhibition rate is greater than 85%), the “Activity level (growth inhibition rate) Abutilon theophrasti” value (Abutilon theophrasti) was 5 (Level 5: the growth inhibition rate is greater than 85%) and the “Activity level (growth inhibition rate) Leptochloa chinensis” value (Leptochloa chinensis) was 5 (Level 5: the growth inhibition rate is greater than 85%).
